Assay results reported in paper PMC7309225, “Synthesis, Biodistribution, and Radiation Dosimetry of a Novel mGluR5 Radioligand: ^18F-AZD9272” (ACS Chemical Neuroscience, 2020).
Several values for one entry are separate records, joined by “and”; a condition that tells them apart may be missing. Equal values may be shown once.

Key:
[1] = Radiometabolite analysis of plasma by radio-HPLC during PET; assay type: in vivo, cynomolgus monkey
Protocol: (§1) An automated blood sampling system (ABSS) was used to measure the continuous radioactivity for the first 3 min after the radioligand injection. Then, blood sampling was performed manually for the measurement of metabolism and radioactivity at 5, 15, 30, 60, 90, and 120 min after the injection. A reversed-phase radio-HPLC method was used to determine the amount of unchanged ^18F-AZD9272 and its radioactive metabolites in NHP plasma.[35]

mGluR5 = experiment: Brain PET in cynomolgus monkey (HRRT), VT by 2TC model and Logan GA; assay type: in vivo
Protocol: Two male cynomolgus monkeys (NHP1: 5460 g and NHP2: 7080 g) were used in this study. […] Anesthesia was induced by intramuscular injection of ketamine hydrochloride (approximately 10 mg/kg) at AFL and maintained by intravenous infusion of ketamine (4 mg/kg/h) and xylazine (0.4 mg/kg/h) with a pump. The NHP head was immobilized with a fixation device. […] Heart rate, blood pressure, respiratory rate, and oxygen saturation were continuously monitored throughout the experiments. Fluid balance was maintained by continuous infusion of saline.
PET measurements were conducted using a High Resolution Research Tomograph (HRRT) PET scanner (Siemens Molecular Imaging, Knoxville, TN). […] List-mode data were reconstructed with a series of 34 frames (20 s × 9, 1 min × 3, 3 min × 5, and 6 min × 17), using the ordinary Poisson-3D-ordered subset expectation maximization (OP-3D-OSEM) algorithm with 10 iterations and 16 subsets including modeling of the point spread function (PSF).
as §1
The regions of interest (ROIs) were delineated manually on the MRI images of each NHP for the anterior cingulate cortex, amygdala, caudate, cerebellum, hippocampus, insular cortex, occipital cortex, prefrontal cortex, putamen, temporal cortex, thalamus, ventral midbrain, and ventral striatum. The MRI of the individual NHP was co-registered to summed PET images of the whole measurement. By applying the co-registration parameters to ROIs, the time–activity curves of brain regions were generated from dynamic PET data.
As the main outcome measure, the total distribution volume (VT) defined as (K1/k2)(k3/k4 + 1) by the two tissue compartment (2TC) model and Logan graphical analysis (GA) was calculated with the metabolite corrected plasma radioactivity as the input function. […] The procedure has been described in detail in a previous publication on [^11C]AZD9272 binding.[33]

[2] = Stability of formulated radioligand in PBS (analytical radio-HPLC); assay type: physicochemical
Protocol: The radiochemical purity, identity, and stability of ^18F-AZD9272 was determined by using an analytical HPLC system which included a ACE RP column (C18, 3.9 Ø × 250 mm, 5 μm particle size), Merck-Hitatchi L-7100 Pump, L-7400 UV detector, and GM tube for radioactivity detection (VWR International). The mobile phase CH3CN/0.1% TFA with a gradient HPLC method (10–90% in 8 min) and flow rate of 3 mL/min was used to elute the product. The effluent was monitored with a UV absorbance detector (λ = 270 nm) coupled to a radioactive detector (b-flow, Beckman, Fullerton, CA). The retention time (Rt) of ^18F-AZD9272 was 4–5 min. The identity of ^18F-AZD9272 was confirmed by using HPLC with the coinjection of the authentic nonradioactive AZD9272 (3-fluoro-5-(3-(5-fluoropyridin-2-yl)-1,2,4-oxadiazol-5-yl)benzonitrile) standard.

For `N#Cc1cc(F)cc(-c2nc(-c3ccc([18F])cn3)no2)c1` [^18F-AZD9272, 3-fluoro-5-(3-(5-[^18F]fluoropyridin-2-yl)-1,2,4-oxadiazol-5-yl)benzonitrile], the “Parent compound in plasma” value ([1]; 5 min after injection) was “approximately 95%”, the “Percentage of parent radioligand in plasma” value ([1]; 120 min after injection, individual animals (n = 2)) was 59% and 64% and the VT (mGluR5; ACC anterior cingulate cortex, 2TC, NHP1) was 11.5 mL/cm^3. For the same compound, the VT (mGluR5; ACC anterior cingulate cortex, 2TC, NHP2) was 11.2 mL/cm^3, the VT (mGluR5; ACC anterior cingulate cortex, 2TC, mean) was 11.4 mL/cm^3 and the VT (mGluR5; ACC anterior cingulate cortex, GA, NHP1) was 10.2 mL/cm^3. The VT (mGluR5; ACC anterior cingulate cortex, GA, NHP2) was 10.7 mL/cm^3, the VT (mGluR5; ACC anterior cingulate cortex, GA, mean) was 10.4 mL/cm^3 and the VT (mGluR5; AMG amygdala, 2TC, NHP1) was 15.0 mL/cm^3. It also gave a VT (mGluR5; AMG amygdala, 2TC, NHP2) of 14.4 mL/cm^3, a VT (mGluR5; AMG amygdala, 2TC, mean) of 14.7 mL/cm^3 and a VT (mGluR5; AMG amygdala, GA, NHP1) of 12.8 mL/cm^3. The VT (mGluR5; AMG amygdala, GA, NHP2) was 13.1 mL/cm^3, the VT (mGluR5; AMG amygdala, GA, mean) was 13.0 mL/cm^3 and the VT (mGluR5; CAU caudate, 2TC, NHP1) was 13.3 mL/cm^3. The VT (mGluR5; CAU caudate, 2TC, NHP2) was 13.7 mL/cm^3, the VT (mGluR5; CAU caudate, 2TC, mean) was 13.5 mL/cm^3 and the VT (mGluR5; CAU caudate, GA, NHP1) was 12.1 mL/cm^3. The VT (mGluR5; CAU caudate, GA, NHP2) was 13.0 mL/cm^3, the VT (mGluR5; CAU caudate, GA, mean) was 12.6 mL/cm^3 and the VT (mGluR5; CER cerebellum, 2TC, NHP1) was 7.1 mL/cm^3. For the same compound, the VT (mGluR5; CER cerebellum, 2TC, NHP2) was 7.9 mL/cm^3, the VT (mGluR5; CER cerebellum, 2TC, mean) was 7.5 mL/cm^3 and the VT (mGluR5; CER cerebellum, GA, NHP1) was 6.6 mL/cm^3. For the same compound, the VT (mGluR5; CER cerebellum, GA, NHP2) was 7.6 mL/cm^3, the VT (mGluR5; CER cerebellum, GA, mean) was 7.1 mL/cm^3 and the VT (mGluR5; HIP hippocampus, 2TC, NHP1) was 10.7 mL/cm^3. It also gave a VT (mGluR5; HIP hippocampus, 2TC, NHP2) of 11.9 mL/cm^3, a VT (mGluR5; HIP hippocampus, 2TC, mean) of 11.3 mL/cm^3 and a VT (mGluR5; HIP hippocampus, GA, NHP1) of 9.7 mL/cm^3. The VT (mGluR5; HIP hippocampus, GA, NHP2) was 11.2 mL/cm^3, the VT (mGluR5; HIP hippocampus, GA, mean) was 10.5 mL/cm^3 and the VT (mGluR5; INS insular cortex, 2TC, NHP1) was 9.0 mL/cm^3. The VT (mGluR5; INS insular cortex, 2TC, NHP2) was 10.0 mL/cm^3, the VT (mGluR5; INS insular cortex, 2TC, mean) was 9.5 mL/cm^3 and the VT (mGluR5; INS insular cortex, GA, NHP1) was 8.5 mL/cm^3. For the same compound, the VT (mGluR5; INS insular cortex, GA, NHP2) was 9.6 mL/cm^3, the VT (mGluR5; INS insular cortex, GA, mean) was 9.1 mL/cm^3 and the “Regional brain uptake (PET)” value (mGluR5; NHP brain) was “highest in the striatum, lower in the thalamus and frontal cortex, and lowest in the cerebellum and occipital cortex”. It also gave a VT (mGluR5; OC occipital cortex, 2TC, NHP1) of 5.4 mL/cm^3, a VT (mGluR5; OC occipital cortex, 2TC, NHP2) of 6.0 mL/cm^3 and a VT (mGluR5; OC occipital cortex, 2TC, mean) of 5.7 mL/cm^3. The VT (mGluR5; OC occipital cortex, GA, NHP1) was 5.5 mL/cm^3, the VT (mGluR5; OC occipital cortex, GA, NHP2) was 5.7 mL/cm^3 and the VT (mGluR5; OC occipital cortex, GA, mean) was 5.6 mL/cm^3. For the same compound, the VT (mGluR5; PFC prefrontal cortex, 2TC, NHP1) was 9.6 mL/cm^3, the VT (mGluR5; PFC prefrontal cortex, 2TC, NHP2) was 9.5 mL/cm^3 and the VT (mGluR5; PFC prefrontal cortex, 2TC, mean) was 9.5 mL/cm^3. It also gave a VT (mGluR5; PFC prefrontal cortex, GA, NHP1) of 8.9 mL/cm^3, a VT (mGluR5; PFC prefrontal cortex, GA, NHP2) of 9.3 mL/cm^3 and a VT (mGluR5; PFC prefrontal cortex, GA, mean) of 9.1 mL/cm^3. The VT (mGluR5; PUT putamen, 2TC, NHP1) was 9.5 mL/cm^3, the VT (mGluR5; PUT putamen, 2TC, NHP2) was 10.7 mL/cm^3 and the VT (mGluR5; PUT putamen, 2TC, mean) was 10.1 mL/cm^3. For the same compound, the VT (mGluR5; PUT putamen, GA, NHP1) was 9.3 mL/cm^3, the VT (mGluR5; PUT putamen, GA, NHP2) was 10.1 mL/cm^3 and the VT (mGluR5; PUT putamen, GA, mean) was 9.7 mL/cm^3. For the same compound, the VT (mGluR5; TC temporal cortex, 2TC, NHP1) was 7.6 mL/cm^3, the VT (mGluR5; TC temporal cortex, 2TC, NHP2) was 8.4 mL/cm^3 and the VT (mGluR5; TC temporal cortex, 2TC, mean) was 8.0 mL/cm^3. The VT (mGluR5; TC temporal cortex, GA, NHP1) was 7.2 mL/cm^3, the VT (mGluR5; TC temporal cortex, GA, NHP2) was 8.1 mL/cm^3 and the VT (mGluR5; TC temporal cortex, GA, mean) was 7.7 mL/cm^3. The VT (mGluR5; THA thalamus, 2TC, NHP1) was 11.7 mL/cm^3, the VT (mGluR5; THA thalamus, 2TC, NHP2) was 11.4 mL/cm^3 and the VT (mGluR5; THA thalamus, 2TC, mean) was 11.6 mL/cm^3. It also gave a VT (mGluR5; THA thalamus, GA, NHP1) of 10.6 mL/cm^3, a VT (mGluR5; THA thalamus, GA, NHP2) of 10.8 mL/cm^3 and a VT (mGluR5; THA thalamus, GA, mean) of 10.7 mL/cm^3. It also gave a VT (mGluR5; VM ventral midbrain, 2TC, NHP1) of 11.0 mL/cm^3, a VT (mGluR5; VM ventral midbrain, 2TC, NHP2) of 8.9 mL/cm^3 and a VT (mGluR5; VM ventral midbrain, 2TC, mean) of 9.9 mL/cm^3. The VT (mGluR5; VM ventral midbrain, GA, NHP1) was 9.1 mL/cm^3, the VT (mGluR5; VM ventral midbrain, GA, NHP2) was 8.4 mL/cm^3 and the VT (mGluR5; VM ventral midbrain, GA, mean) was 8.8 mL/cm^3. It also gave a VT (mGluR5; VST ventral striatum, 2TC, NHP1) of 17.3 mL/cm^3, a VT (mGluR5; VST ventral striatum, 2TC, NHP2) of 17.3 mL/cm^3 and a VT (mGluR5; VST ventral striatum, 2TC, mean) of 17.3 mL/cm^3. The VT (mGluR5; VST ventral striatum, GA, NHP1) was 14.5 mL/cm^3, the VT (mGluR5; VST ventral striatum, GA, NHP2) was 15.6 mL/cm^3 and the VT (mGluR5; VST ventral striatum, GA, mean) was 15.1 mL/cm^3. The “Maximum whole brain radioactivity concentration” value (mGluR5; two cynomolgus monkeys (n = 2), i.v.) was 4.9–6.7 % of the injected dose, the “Radiochemical purity after storage (stability)” value ([2]; 2 h after formulation in sterile phosphate buffered solution (pH = 7.4)) was greater than 99% and the “Stability in PBS buffered solution” value ([2]; pH = 7.4, duration of 120 min) was “stable”.
